Reference: the NIST ThermoML archive (doi:10.1016/j.jct.2008.06.003)
± gives the expanded uncertainty stated by the source.

Columns and labels:
[1] = Crystal; for molar enthalpy of sublimation: 298.15 K, Static calorimetry
[2] = Molar enthalpy of transition or fusion; settings: Crystal; DSC

molar enthalpy of sublimation [1] [kJ/mol]	Molar enthalpy of transition or fusion [2] [kJ/mol]	Normal melting temperature ([1]; DTA) [°C]	SMILES
118 ± 4.2	–	–	O=C(O)C1COc2ccccc2O1 (centres undefined) [1,4-benzodioxan-2-carboxylic acid]
107 ± 1.7	28.8 ± 0.63	89.2 ± 0.53	OCC1COc2ccccc2O1 (centres undefined) [1,4-benzodioxane-2-methanol]
